Assay results from ChEMBL document CHEMBL5608217, “New potent EV-A71 antivirals targeting capsid” (Eur J Med Chem, 2024).
Activity calls are given as the source filed them. The rule behind the calls is not given here.

Tests used:
[1] = system: Enterovirus A71; experiment: Antiviral activity against Enterovirus A71 infected in human MRC5 cells assessed as reduction in viral replication incubated for 72 hrs by RT-qPCR analysis; assay type: functional, organism-based; settings: Enterovirus A, MRC5, 72 h
[2] = Genotoxicity in Chinese hamster CHO-K1 cells assessed as increase in micronucleated cell rate at […] incubated for 3 hrs in presence of Sprague-Dawley rat liver S9 fraction by Giemsa staining based micronucleus assay; assay type: toxicity, subcellular, Cricetulus griseus; settings: s9, 3 h, dose lower 1 g/L
[3] = system: Enterovirus A71; experiment: Antiviral activity against Enterovirus A71 infected in human RD cells assessed as inhibition of viral replication at 0.31 to 40 uM incubated for 72 hrs by RT-qPCR analysis relative to control; assay type: functional; settings: dose 0.31-40 µM
[4] = system: Enterovirus A71; experiment: Antiviral activity against Enterovirus A71 infected in human MRC5 cells assessed as inhibition of viral replication at 0.31 to 40 uM incubated for 72 hrs by RT-qPCR analysis relative to control; assay type: functional; settings: dose 0.31-40 µM
[5] = Cytotoxicity against human RD cells; assay type: toxicity, cell-based
[6] = Cytotoxicity against human MRC5 cells; assay type: toxicity, cell-based
[7] = Selectivity index, ratio of CC50 for cytotoxicity against human RD cells to EC50 for antiviral activity against Enterovirus A71 infected in human RD cells; assay type: toxicity, cell-based; settings: read-out: Ratio CC50/EC50
[8] = system: Enterovirus A71; experiment: Antiviral activity against Enterovirus A71 infected in human RD cells assessed as reduction in viral replication incubated for 72 hrs by RT-qPCR analysis; assay type: functional, organism-based; settings: Enterovirus A
[9] = Genotoxicity in Chinese hamster CHO-K1 cells assessed as increase in micronucleated cell rate at […] incubated for 3 hrs in absence of Sprague-Dawley rat liver S9 fraction by Giemsa staining based micronucleus assay; assay type: toxicity, Cricetulus griseus; settings: cho-k1, 3 h, dose lower 1 g/L
[10] = Selectivity index, ratio of CC50 for cytotoxicity against human MRC5 cells to EC50 for antiviral activity against Enterovirus A71 infected in human MRC5 cells; assay type: toxicity, cell-based; settings: read-out: Ratio CC50/EC50
[11] = Cytotoxicity against Chinese hamster CHO-K1 cells incubated for 24 hrs by neutral red dye uptake assay; assay type: toxicity, cell-based, Cricetulus griseus
[12] = system: rhinovirus B14; experiment: Antiviral activity against Human rhinovirus B14 infected in human HeLa-RH cells assessed as inhibition of virus induced cytopathic effect incubated for 3 days by MTS assay; assay type: functional, organism-based; settings: Rhinovirus B, 72 h

CCOc1ccc(-c2ccc(CSc3nc4cc(OC)ccc4o3)cc2)cc1
EC50 [1]: > 20 µM

Cn1nccc1-c1ccc(SCc2ccc(-n3cncn3)cc2)cc1
Activity [2]: Non-Toxic
inhibition (INH) [3]: 100%
inhibition (INH) [4]: 100%
CC50 [5]: > 40 µM
CC50 [6]: > 20 µM
selectivity ratio [7]: > 9
EC50 [8]: 4.38 µM
Activity [9]: Non-Toxic
EC50 [1]: 0.57 µM
selectivity ratio [10]: > 35
CC50 at 24 h [11]: 44.8 µM

c1ccc2nc(SCc3ccc(-n4cncn4)cc3)cnc2c1
CC50 [5]: > 40 µM
CC50 [6]: > 40 µM
EC50 [8]: 6.8 µM
EC50 [1]: 38.1 µM

OCc1ccc(-c2ccc(SCc3ccc(-c4ccc(C(F)(F)F)cc4)cc3)nc2)cc1
EC50 [1]: > 20 µM

COc1ccc2[nH]c(SCc3ccc(-n4cncn4)cc3)nc2c1
CC50 [5]: > 40 µM
CC50 [6]: > 40 µM
EC50 [8]: > 40 µM
EC50 [1]: > 40 µM

CN(C)c1ccc(-c2ccc(SCc3ccc(-n4cncn4)cc3)cc2)cc1
EC50 [1]: > 20 µM

CCOc1ccc(-c2ccc(CSc3ccc(-c4ccc(CO)cc4)cc3)cc2)cc1
EC50 [1]: > 20 µM

Cc1ccc2oc(SCc3ccc(-n4cncn4)cc3)nc2c1
EC50 [1]: > 20 µM

Cc1cccc2c1[nH]c1nc(SCc3ccc(-n4cncn4)cc3)nnc12
CC50 [5]: 8.89 µM
CC50 [6]: 15.6 µM
EC50 [8]: 4.65 µM
EC50 [1]: 26.5 µM

CCOc1ccc(-c2ccc(SCc3ccc(-n4cncn4)cc3)nc2)cc1
EC50 [1]: > 20 µM

OCc1ccc(-c2ccc(SCc3ccc(-c4ccc(N5CCOCC5)cc4)cc3)nc2)cc1
Activity [2]: Non-Toxic
CC50 [5]: > 40 µM
CC50 [6]: > 20 µM
selectivity ratio [7]: > 2
EC50 [8]: 19.7 µM
Activity [9]: Non-Toxic
EC50 [1]: 6.38 µM
selectivity ratio [10]: > 3.1
CC50 at 24 h [11]: 45.8 µM

c1ccc2sc(SCc3ccc(-n4cncn4)cc3)nc2c1
EC50 [1]: > 20 µM

c1ccc2[nH]c(SCc3ccc(-n4cncn4)cc3)nc2c1
EC50 [1]: > 20 µM

Fc1ccc(-c2ccc(SCc3ccc(-n4cncn4)cc3)cc2)cc1C(F)(F)F
EC50 [1]: > 20 µM

COc1ccc2oc(SCc3ccc(-n4cncn4)cc3)nc2c1
Activity [2]: Non-Toxic
CC50 [5]: 22.1 µM
CC50 [6]: > 20 µM
EC50 [8]: 28.5 µM
Activity [9]: Non-Toxic
EC50 [1]: 1.67 µM
selectivity ratio [10]: < 1
CC50 at 24 h [11]: 32.1 µM

Cn1nccc1-c1ccc(SCc2ccc(-n3cncn3)cc2)nc1
EC50 [1]: > 20 µM

Cc1ccc(-c2ccc(SCc3ccc(-n4cncn4)cc3)cc2)cc1
EC50 [1]: > 20 µM

CN(C)c1ccc(-c2ccc(CSc3ccc(-c4ccc(CO)cc4)cn3)cc2)cc1
EC50 [1]: > 20 µM

FC(F)(F)c1ccc(-c2ccc(SCc3ccc(-n4cncn4)cc3)cc2)cc1
EC50 [1]: > 20 µM

COc1cc(C[C@H](O)c2ccc(C#N)cc2)c([N+](=O)[O-])cc1OC
EC50 [12]: 2 µM

CCOc1ccc(-c2ccc(SCc3ccc(-n4cncn4)cc3)cc2)cc1
EC50 [1]: > 20 µM

OCc1ccc(-c2ccc(SCc3ccc(-c4ccc(O)cc4)cc3)nc2)cc1
EC50 [1]: > 20 µM

CN1CCC(c2ccc(-c3ccc(CSc4ccc(-c5ccc(CO)cc5)cn4)cc3)cc2)CC1
EC50 [1]: > 20 µM

CCOc1noc2cc(OCCC3CCN(c4ccc(C)nn4)CC3)ccc12 [VAPENDAVIR]
CC50 [5]: > 63 µM
CC50 [6]: > 20 µM

OCc1ccc(-c2ccc(SCc3ccc(-n4cncn4)cc3)nc2)cc1
Activity [2]: Non-Toxic
inhibition [3]: Active
inhibition [4]: Active
CC50 [5]: > 40 µM
CC50 [6]: > 20 µM
selectivity ratio [7]: > 24
EC50 [8]: 1.66 µM
Activity [9]: Non-Toxic
EC50 [1]: 0.29 µM
selectivity ratio [10]: > 68
CC50 at 24 h [11]: 41.3 µM

COc1ccc2oc(SCc3ccc(-c4ccc(N(C)C)cc4)cc3)nc2c1
EC50 [1]: > 20 µM

c1ccc2nc(SCc3ccc(-n4cncn4)cc3)ccc2c1
CC50 [5]: > 40 µM
CC50 [6]: > 40 µM
EC50 [8]: > 40 µM
EC50 [1]: 39.7 µM

Clc1ccc2oc(SCc3ccc(-n4cncn4)cc3)nc2c1
EC50 [1]: > 20 µM

CCOc1ccc(-c2ccc(CSc3ccc(-c4ccc(CO)cc4)cn3)cc2)cc1
EC50 [1]: > 20 µM

FC(F)(F)c1ccc2c(SCc3ccc(-n4cncn4)cc3)ccnc2c1
CC50 [5]: 20.8 µM
CC50 [6]: > 40 µM
EC50 [8]: 12.7 µM
EC50 [1]: 28 µM

c1ccc2oc(SCc3ccc(-n4cncn4)cc3)nc2c1
EC50 [1]: > 20 µM

O=Cc1ccc(-c2ccc(SCc3ccc(-n4cncn4)cc3)nc2)cc1
EC50 [1]: > 20 µM

OCc1ccc(-c2ccc(SCc3ccc(-n4cncn4)cc3)cc2)cc1
EC50 [1]: > 20 µM

c1ncn(-c2ccc(CSc3ccc(-c4ccc(N5CCOCC5)cc4)cc3)cc2)n1
EC50 [1]: > 20 µM
